Results reported in ChEMBL document CHEMBL1201862, “PubChem BioAssay data set” (2004).
Activity calls are given as the source filed them.

How the values were obtained:
CHO-K1 = assay: (§1) Counterscreen for antagonists of the orexin 1 receptor (OX1R; HCRTR1): Homogeneous time resolved fluorescence (HTRF)-based cell-based dose response assay to identify antagonists of the parental CHO-K1 cell line. [Related pubchem assays (depositor defined):AID434989, AID435008, AID463079, AID485270, AID492963, AID492964, AID492965, AID493232, AID504699, AID504701]; format: functional; conditions: Cricetulus griseus
[1] = as §1, with “Fluorescence-based” for “Homogeneous time resolved fluorescence (HTRF)-based”, “cell-based high throughput” for “cell-based”, “CHO” for “CHO-K1”; format: functional
[2] = molecular target: T1, Orexin/Hypocretin receptor type 1 (Homo sapiens, UniProt O43613); assay: Homogeneous Time Resolved Fluorescence (HTRF)-based cell-based high throughput dose response assay for antagonists of the orexin 1 receptor (OX1R; HCRTR1). [Related pubchem assays (depositor defined):AID434989, AID435008, AID463079, AID485270, AID492963, AID492964, AID492965, AID493232, AID504717, AID504718]; format: functional
[3] = molecular target: T1, Orexin/Hypocretin receptor type 1; assay: Fluorescence-based cell-based high throughput dose response assay for antagonists of the orexin 1 receptor (OX1R; HCRTR1). [Related pubchem assays (depositor defined):AID434989, AID435008, AID463079, AID485270, AID492963, AID492964, AID492965, AID493232, AID504717, AID504718]; format: functional
Orexin receptor type 2 [4] = molecular target: T2, Orexin receptor type 2 (Homo sapiens, UniProt O43614); assay: Counterscreen assay for antagonists of the orexin 1 receptor (OX1R; HCRTR1): Fluorescence-based cell-based dose response assay for antagonists of the orexin 2 receptor (OX2R; HCRTR2), run by assay provider.; format: functional
Orexin receptor type 2 [5] = molecular target: T2, Orexin receptor type 2; assay: Counterscreen assay for antagonists of the orexin 1 receptor (OX1R; HCRTR1): Homogeneous Time Resolved Fluorescence (HTRF)-based cell-based dose response assay for antagonists of the orexin 2 receptor (OX2R; HCRTR2), run by assay provider.; format: functional
cells = format: functional
[6] = THP-1 cell cytotoxicity, dose response, cytotoxicity control, set 3 (AID 504852); format: functional; conditions: Mycobacterium tuberculosis
[7] = molecular target: T3, RNA-binding protein pos-1 (Caenorhabditis elegans, UniProt G5EF15); assay: disruptors of C. elegans POS-1 RNA interaction – biochemical, fluorescence polarization, dose response (AID 1964);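 also: purified POS-1 fused to maltose binding protein made in E. coli; potency of compounds blocking POS-1 binding to fluorescent RNA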
T3 sequence (G5EF15 whole entry): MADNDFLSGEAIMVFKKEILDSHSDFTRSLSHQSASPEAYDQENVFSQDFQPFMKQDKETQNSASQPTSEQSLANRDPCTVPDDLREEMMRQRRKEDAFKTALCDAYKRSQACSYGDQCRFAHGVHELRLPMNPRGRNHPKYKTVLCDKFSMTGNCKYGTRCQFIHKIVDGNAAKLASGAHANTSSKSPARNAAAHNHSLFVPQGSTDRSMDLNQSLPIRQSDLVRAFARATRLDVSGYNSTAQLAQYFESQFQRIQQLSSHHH

[8] = molecular target: T4, Zinc finger protein mex-5 (Caenorhabditis elegans, UniProt Q9XUB2); assay: potency of MEX-5 RNA-binding blockers – biochemical, C. elegans, fluorescence polarization, dose response (AID 1960)
T4 sequence (Q9XUB2 whole entry): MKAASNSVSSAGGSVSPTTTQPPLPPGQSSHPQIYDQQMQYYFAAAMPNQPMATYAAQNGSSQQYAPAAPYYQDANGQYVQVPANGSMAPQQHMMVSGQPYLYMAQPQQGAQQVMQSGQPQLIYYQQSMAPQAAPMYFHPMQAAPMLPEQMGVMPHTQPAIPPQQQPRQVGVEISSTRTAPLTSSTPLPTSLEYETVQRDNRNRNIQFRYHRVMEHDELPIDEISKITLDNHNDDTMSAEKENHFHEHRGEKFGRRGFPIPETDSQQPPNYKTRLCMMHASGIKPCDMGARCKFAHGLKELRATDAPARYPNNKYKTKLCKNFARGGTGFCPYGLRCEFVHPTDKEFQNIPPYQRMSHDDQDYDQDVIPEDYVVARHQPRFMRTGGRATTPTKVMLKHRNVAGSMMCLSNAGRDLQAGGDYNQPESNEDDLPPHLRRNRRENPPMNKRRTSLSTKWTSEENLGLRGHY

Beta-lactamase [9] = molecular target: Beta-lactamase (Pseudomonas aeruginosa, UniProt Q79MP6);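 also: biochemical dose-response test of metallo-beta-lactamase enzyme inhibition, read out by epi-absorbance; purified recombinant IMP-1 metallo-beta-lactamase with nitrocefin as substrate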
Beta-lactamase [10] = molecular target: Beta-lactamase (Salmonella choleraesuis (strain SC-B67), UniProt Q5J463)
ORF 73 = molecular target: T5, ORF 73 (Human herpesvirus 8, UniProt O40947); assay: KSHV LANA DNA-binding disruption – biochemical, fluorescence polarization, cherry-picked samples, dose response (AID 504725); parameters: species or system Human gammaherpesvirus 8;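 also: fluorescence polarization of a labeled DNA duplex reporting LANA DNA binding; potency is for inhibitors that block LANA binding to the DNA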
T5 sequence (O40947 whole entry): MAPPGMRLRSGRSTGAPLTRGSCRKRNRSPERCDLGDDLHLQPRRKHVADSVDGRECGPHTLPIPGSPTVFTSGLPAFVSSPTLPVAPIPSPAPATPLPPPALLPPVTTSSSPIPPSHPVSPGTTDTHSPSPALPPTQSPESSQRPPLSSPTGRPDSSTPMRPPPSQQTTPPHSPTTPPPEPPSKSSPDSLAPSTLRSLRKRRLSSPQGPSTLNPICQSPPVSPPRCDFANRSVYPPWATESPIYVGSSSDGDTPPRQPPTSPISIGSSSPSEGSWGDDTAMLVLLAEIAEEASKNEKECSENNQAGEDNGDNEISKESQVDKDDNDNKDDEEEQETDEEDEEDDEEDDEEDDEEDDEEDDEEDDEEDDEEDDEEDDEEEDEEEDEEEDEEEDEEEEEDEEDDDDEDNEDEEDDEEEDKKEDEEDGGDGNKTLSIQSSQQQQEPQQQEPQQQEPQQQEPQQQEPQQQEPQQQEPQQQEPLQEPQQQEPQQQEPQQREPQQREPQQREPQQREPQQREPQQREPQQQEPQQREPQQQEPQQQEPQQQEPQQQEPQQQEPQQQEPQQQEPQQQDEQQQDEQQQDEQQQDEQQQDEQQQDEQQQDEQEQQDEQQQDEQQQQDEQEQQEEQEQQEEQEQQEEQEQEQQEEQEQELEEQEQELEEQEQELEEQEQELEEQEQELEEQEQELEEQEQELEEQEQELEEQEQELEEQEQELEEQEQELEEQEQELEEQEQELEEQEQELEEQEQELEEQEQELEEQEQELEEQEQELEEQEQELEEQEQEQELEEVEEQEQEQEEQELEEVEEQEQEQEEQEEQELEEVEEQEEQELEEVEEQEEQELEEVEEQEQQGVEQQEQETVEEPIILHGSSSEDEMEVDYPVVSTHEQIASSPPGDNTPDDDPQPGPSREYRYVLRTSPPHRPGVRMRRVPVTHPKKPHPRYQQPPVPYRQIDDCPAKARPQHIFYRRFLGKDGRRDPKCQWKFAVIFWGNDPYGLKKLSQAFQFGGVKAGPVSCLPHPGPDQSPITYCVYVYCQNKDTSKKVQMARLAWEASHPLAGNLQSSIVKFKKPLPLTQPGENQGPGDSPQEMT

Insulin-degrading enzyme [11] = molecular target: T6, Insulin-degrading enzyme (Homo sapiens, UniProt P14735); assay: recombinant IDE activation, cell-free – biochemical, fluorescence polarization, counter-screen for IDE activator project, dose response (AID 588681)
T6 sequence (P14735 whole entry): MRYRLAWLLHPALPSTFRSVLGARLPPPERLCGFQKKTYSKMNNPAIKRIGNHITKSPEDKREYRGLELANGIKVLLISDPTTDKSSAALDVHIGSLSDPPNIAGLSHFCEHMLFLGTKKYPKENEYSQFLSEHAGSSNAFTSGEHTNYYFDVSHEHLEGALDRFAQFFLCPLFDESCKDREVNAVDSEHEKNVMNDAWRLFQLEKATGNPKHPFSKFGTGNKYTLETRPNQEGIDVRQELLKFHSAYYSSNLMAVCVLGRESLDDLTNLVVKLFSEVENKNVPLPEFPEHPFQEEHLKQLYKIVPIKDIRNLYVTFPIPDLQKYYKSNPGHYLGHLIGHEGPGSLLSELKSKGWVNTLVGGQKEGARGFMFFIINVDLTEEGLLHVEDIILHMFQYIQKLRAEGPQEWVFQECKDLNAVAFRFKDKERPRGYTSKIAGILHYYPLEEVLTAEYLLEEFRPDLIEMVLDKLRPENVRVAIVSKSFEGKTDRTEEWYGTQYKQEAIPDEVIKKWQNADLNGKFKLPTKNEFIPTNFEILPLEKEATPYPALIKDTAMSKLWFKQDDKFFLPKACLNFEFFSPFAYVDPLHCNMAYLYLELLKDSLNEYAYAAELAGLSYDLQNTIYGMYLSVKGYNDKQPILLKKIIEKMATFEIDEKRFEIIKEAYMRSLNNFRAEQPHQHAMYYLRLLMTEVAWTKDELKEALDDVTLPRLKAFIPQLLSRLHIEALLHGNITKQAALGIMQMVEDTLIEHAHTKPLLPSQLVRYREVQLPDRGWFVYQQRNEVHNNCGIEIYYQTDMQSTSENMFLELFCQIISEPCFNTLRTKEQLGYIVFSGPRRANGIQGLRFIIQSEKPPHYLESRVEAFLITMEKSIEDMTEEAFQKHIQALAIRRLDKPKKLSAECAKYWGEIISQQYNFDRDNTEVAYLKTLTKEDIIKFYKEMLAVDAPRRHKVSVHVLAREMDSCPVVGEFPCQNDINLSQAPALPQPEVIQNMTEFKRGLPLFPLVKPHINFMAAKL

Keap1/Nrf2 = Keap1/Nrf2 (Homo sapiens, UniProt Q14145); assay: disruptors of Keap1 binding to Nrf2 peptide – biochemical, fluorescence polarization, cherry-picked samples, dose response (AID 588683)
Insulin-degrading enzyme [12] = molecular target: T6, Insulin-degrading enzyme; assay: cellular IDE activation of Abeta substrate cleavage – fluorescence polarization, HEK cells, dose response (AID 588439); format: functional, cell-based
HEK293 [13] = assay: membrane integrity loss in HEK cells – cell-based, fluorescence, cytotoxicity control for IDE activator project, dose response (AID 588440); format: functional; conditions: Homo sapiens;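 also: cytotoxicity by LDH release measuring loss of membrane integrity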
HEK293 [14] = assay: optical interference in Abeta FP readout, dose response, artefact control for IDE activator project, biochemical, fluorescence polarization (AID 588442); format: functional, cell-based; conditions: Homo sapiens
[15] = molecular target: Sphingosine 1-phosphate receptor 2 (Homo sapiens, UniProt O95136); assay: Late-stage fluorescence-based dose-response cell-based counterscreen assay to identify agonists of the Sphingosine 1-Phosphate Receptor 3 (S1P3): Sphingosine 1-Phosphate Receptor 2 (S1P2) agonist assay.; format: functional
[16] = molecular target: Sphingosine 1-phosphate receptor 4 (Homo sapiens, UniProt O95977); assay: Late-stage fluorescence-based dose-response cell-based counterscreen assay to identify agonists of the Sphingosine 1-Phosphate Receptor 3 (S1P3): Sphingosine 1-Phosphate Receptor 4 (S1P4) agonist assay.; format: functional
Sequence of Sphingosine 1-phosphate receptor 4 (O95977 whole entry): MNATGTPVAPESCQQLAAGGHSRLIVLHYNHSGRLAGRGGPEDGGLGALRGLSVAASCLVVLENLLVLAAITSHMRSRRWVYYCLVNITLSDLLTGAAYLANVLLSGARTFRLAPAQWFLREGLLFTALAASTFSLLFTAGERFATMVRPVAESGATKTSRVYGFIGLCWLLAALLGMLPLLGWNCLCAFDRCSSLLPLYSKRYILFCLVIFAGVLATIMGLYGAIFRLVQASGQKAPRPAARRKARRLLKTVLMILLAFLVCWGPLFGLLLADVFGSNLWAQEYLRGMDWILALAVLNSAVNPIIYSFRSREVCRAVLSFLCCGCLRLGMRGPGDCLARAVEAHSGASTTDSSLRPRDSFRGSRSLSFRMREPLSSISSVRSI

T1 sequence (O43613 whole entry): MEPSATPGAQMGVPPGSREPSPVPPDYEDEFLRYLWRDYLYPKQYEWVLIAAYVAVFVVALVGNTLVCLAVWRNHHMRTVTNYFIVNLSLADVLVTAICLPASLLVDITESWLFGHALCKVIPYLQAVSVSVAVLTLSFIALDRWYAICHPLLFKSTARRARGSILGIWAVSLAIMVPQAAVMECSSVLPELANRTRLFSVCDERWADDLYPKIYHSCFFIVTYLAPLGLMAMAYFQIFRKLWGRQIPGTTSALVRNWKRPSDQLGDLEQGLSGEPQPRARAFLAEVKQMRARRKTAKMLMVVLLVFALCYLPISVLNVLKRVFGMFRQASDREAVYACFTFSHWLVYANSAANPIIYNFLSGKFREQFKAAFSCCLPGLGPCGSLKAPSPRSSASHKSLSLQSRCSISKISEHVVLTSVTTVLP
T2 sequence (O43614 whole entry): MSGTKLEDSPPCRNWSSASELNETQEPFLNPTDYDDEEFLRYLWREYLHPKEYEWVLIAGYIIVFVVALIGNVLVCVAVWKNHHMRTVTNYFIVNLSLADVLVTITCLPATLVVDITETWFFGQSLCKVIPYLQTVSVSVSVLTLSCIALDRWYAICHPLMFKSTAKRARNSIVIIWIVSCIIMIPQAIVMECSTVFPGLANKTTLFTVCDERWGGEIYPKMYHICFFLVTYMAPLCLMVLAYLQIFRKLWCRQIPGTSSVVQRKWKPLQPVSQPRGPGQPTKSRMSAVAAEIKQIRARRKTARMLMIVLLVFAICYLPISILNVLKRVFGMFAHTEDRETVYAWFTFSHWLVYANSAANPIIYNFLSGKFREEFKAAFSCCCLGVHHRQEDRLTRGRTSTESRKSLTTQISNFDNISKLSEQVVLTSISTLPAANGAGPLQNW
Sequence of Sphingosine 1-phosphate receptor 2 (O95136 whole entry): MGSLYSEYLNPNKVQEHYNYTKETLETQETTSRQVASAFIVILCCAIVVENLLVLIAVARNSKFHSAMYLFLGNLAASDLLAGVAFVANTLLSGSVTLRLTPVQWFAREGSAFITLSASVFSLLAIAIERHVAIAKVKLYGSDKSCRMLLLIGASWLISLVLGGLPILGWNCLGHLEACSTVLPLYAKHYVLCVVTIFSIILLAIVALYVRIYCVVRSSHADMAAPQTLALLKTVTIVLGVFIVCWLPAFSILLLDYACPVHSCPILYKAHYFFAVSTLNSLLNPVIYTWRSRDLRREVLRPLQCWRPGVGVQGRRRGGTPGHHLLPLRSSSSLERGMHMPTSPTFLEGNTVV
Sequence of Beta-lactamase (Pseudomonas aeruginosa, UniProt Q79MP6) (Q79MP6 whole entry): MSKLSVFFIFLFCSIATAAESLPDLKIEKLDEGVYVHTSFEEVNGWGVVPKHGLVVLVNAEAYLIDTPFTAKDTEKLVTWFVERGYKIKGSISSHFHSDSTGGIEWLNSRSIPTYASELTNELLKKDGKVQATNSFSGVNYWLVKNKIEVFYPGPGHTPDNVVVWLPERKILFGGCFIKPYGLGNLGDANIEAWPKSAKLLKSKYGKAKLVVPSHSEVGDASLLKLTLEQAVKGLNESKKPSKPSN
Sequence of Keap1/Nrf2 (Q16236 whole entry): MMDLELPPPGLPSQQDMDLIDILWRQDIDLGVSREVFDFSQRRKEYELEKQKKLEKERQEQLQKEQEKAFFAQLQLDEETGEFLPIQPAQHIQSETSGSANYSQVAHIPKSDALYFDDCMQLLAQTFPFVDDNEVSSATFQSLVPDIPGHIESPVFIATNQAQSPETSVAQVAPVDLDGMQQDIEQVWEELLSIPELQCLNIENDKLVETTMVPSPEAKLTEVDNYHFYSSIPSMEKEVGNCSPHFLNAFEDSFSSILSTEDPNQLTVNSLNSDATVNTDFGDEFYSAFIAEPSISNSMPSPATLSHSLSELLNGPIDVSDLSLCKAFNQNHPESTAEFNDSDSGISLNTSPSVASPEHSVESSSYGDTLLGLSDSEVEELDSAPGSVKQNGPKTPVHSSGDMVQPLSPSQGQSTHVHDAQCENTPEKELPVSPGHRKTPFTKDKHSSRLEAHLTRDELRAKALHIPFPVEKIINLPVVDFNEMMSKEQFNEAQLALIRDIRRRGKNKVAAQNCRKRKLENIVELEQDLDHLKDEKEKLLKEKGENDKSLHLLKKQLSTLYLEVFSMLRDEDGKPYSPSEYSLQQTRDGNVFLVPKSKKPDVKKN
Sequence of Keap1/Nrf2 (Q14145 whole entry): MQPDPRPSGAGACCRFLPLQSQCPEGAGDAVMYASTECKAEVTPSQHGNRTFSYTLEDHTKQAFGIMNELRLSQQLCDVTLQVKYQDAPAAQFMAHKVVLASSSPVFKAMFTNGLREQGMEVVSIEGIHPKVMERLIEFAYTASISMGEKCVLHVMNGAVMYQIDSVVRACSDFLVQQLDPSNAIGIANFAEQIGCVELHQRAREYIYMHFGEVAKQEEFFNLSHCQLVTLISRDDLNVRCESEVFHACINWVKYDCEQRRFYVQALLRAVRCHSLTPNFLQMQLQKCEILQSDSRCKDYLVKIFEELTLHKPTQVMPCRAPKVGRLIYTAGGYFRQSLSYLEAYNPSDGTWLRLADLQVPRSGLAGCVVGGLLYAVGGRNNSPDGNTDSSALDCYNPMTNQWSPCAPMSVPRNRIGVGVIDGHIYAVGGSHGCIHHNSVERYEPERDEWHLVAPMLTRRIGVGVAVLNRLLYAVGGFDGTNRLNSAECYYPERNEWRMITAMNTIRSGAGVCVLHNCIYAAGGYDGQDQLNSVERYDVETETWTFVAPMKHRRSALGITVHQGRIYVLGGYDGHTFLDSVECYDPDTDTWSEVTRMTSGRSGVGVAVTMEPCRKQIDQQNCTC
Sequence of Beta-lactamase (Salmonella choleraesuis (strain SC-B67), UniProt Q5J463) (Q5J463 whole entry): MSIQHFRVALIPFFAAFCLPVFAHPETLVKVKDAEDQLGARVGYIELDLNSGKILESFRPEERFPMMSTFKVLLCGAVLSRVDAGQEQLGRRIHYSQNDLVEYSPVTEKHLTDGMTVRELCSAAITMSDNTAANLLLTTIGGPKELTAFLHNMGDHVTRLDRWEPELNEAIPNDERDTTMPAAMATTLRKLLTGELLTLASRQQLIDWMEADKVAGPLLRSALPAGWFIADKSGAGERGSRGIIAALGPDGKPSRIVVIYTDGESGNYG

Cc1ccc(C)n1-c1nn(S(=O)(=O)c2cccc3cccnc23)c2cccc(F)c12
IC50 (CHO-K1): > 66.2 µM (inactive) | IC50 [1]: > 49.8 µM (inactive) | IC50 [2]: 1.93 µM (active) | IC50 [3]: 45 µM (inactive) | IC50 (Orexin receptor type 2 [4]): 29.3 µM (inactive) | IC50 (Orexin receptor type 2 [5]): > 50 µM (inactive)

Cc1ccc(NC(=O)COC(=O)CCc2c[nH]c3ccccc23)cc1[N+](=O)[O-]
IC50 (cells): 1.84 µM (active) | CC50 [6]: > 100 µM (active)

O=C1c2cccc3c(O)ccc(c23)C(=O)N1c1ccc(Cl)cc1
EC50 [7]: 7.11 µM (inconclusive) | EC50 [8]: 0.289 µM (inconclusive) | IC50 (Beta-lactamase [9]): 19.8 µM (inactive) | IC50 (Beta-lactamase [10]): 7.95 µM (active) | AC50 (ORF 73): 1.93 µM (active) | EC50 (Insulin-degrading enzyme [11]): > 54.7 µM (inactive) | AC50 (Keap1/Nrf2): 2.53 µM (active) | EC50 (Insulin-degrading enzyme [12]): > 54.7 µM (inactive) | IC50 (HEK293 [13]): > 89.2 µM (inactive) | EC50 (HEK293 [14]): > 54.7 µM (inactive)

CC1CCCCC1N(C(=O)c1cc(C2CC2)on1)C1CCCC1 (stereo not given)
EC50 [15]: > 50 µM (inactive) | EC50 [16]: > 50 µM (inactive)
